Laboratory results: patent US20180344805A1, “GLYCOLIPID COMPOUNDS AND THEIR USES IN THE TREATMENT OF TUMOURS” (Agalimmune Limited (GB/GB), priority 2015, published 2018)

What was measured:
[1] = test system: CHO-K1 cells; test: Anti-Gal Recruitment Assay; type: cell-based; details: CHO-K1 cells incubated with glycolipid 1 hour at 37° C.; monoclonal anti-Gal IgG1, FITC-conjugated anti-human IgG, flow cytometry; FIGS. 1 and 2
Protocol: CHO-K1 cells were harvested from cell culture flasks, counted and resuspended in PBS to a cell density of 5×10^6 cells/ml. Each glycolipid was serially diluted in PBS across nine 1.5 ml centrifuge tubes so that the final volume in the tubes was 100 μl. To each tube, 100 μl of the CHO-K1 cell suspension was added and the tubes incubated for 1 hour at 37° C. After an hour the cells were pelleted by centrifugation at 400 g for 3 minutes and resuspended in 500 μl of PBS+0.1% BSA. This was repeated twice more to wash the cells. After the final wash the cells were resuspended in 100 μl of monoclonal anti-Gal IgG1 diluted 1:8 in PBS+0.1% BSA. The tubes were incubated on ice for 30 minutes. After 30 minutes the cells were pelleted by centrifugation at 400 g for 3 minutes and resuspended in 500 μl of PBS+0.1% BSA. This was repeated twice more to wash the cells. After the final wash the cells were resuspended in 100 μl of FITC-conjugated mouse anti-human IgG (Biolegend) and the tubes incubated on ice for 30 minutes. After 30 minutes the cells were pelleted by centrifugation at 400 g for 3 minutes and resuspended in 500 μl of PBS+0.1% BSA. This was repeated twice more to wash the cells. […] After 5 minutes incubation on ice the cells were analysed on a Cytomics FC500 flow cytometer (Beckman Coulter). […]

[2] = test system: CHO-K1 cells; test: Complement Dependent Cytotoxicity Assay; type: cell-based; details: for Lysis of glycolipid-labelled cells by human serum complement: CHO-K1 cells labelled with glycolipid, 50% human serum, FIGS. 3 to 5; for EC50: Cricetulus griseus, CHO-K1 cells labelled with glycolipid 1 hour at 37° C., then 50% human serum complement 1 hour at 37° C., cell viability by CellTiter-Glo
Protocol: CHO-K1 cells were harvested from cell culture flasks, counted and resuspended in PBS to a cell density of 5×10^6 cells/ml. Each glycolipid was serially diluted in PBS across nine 1.5 ml centrifuge tubes so that the final volume in the tubes was 100 μl. To each tube, 100 μl of the CHO-K1 cell suspension was added and the tubes incubated for 1 hour at 37° C. After an hour the tubes were placed on ice for 5 minutes and then the cells washed 3 times with 500 μl of ice-cold PBS. The cells were resuspended in a final volume of 250 μl of ice-cold PBS and 50 μl aliquots were transferred to duplicate wells of a 96 well plate. To each well containing cells 50 μl of 100% normal or heat-inactivated (30 minutes at 56° C.) human serum complement (Innovative Research) was added so that the final concentration of human serum was 50%. The plate was incubated at 37° C. for 1 hour, after which cell viability was measured using CellTiter-Glo reagent (Promega) read on a EnVision plate reader (Perkin Elmer).

Structure (SMILES)	Membrane incorporation and recruitment of anti-Gal antibody [1]	Lysis of glycolipid-labelled cells by human serum complement [2]	EC50 [2]
CCCCCCCC/C=C\CCCCCCCC(=O)OCC(COP(=O)(O)OCCNC(=O)CCCCC(=O)NCC(=O)NCC(=O)N(CC(=O)O)CC(=O)NCC(=O)NCC(=O)N(CC(=O)O)CC(=O)NCCNC(=O)CN(CC(=O)O)C(=O)CNC(=O)CNC(=O)CN(CC(=O)O)C(=O)CNC(=O)CNC(=O)CCCCC(=O)NCCCO[C@@H]1OC(CO)[C@@H](O[C@@H]2OC(CO)[C@H](O)[C@H](O[C@H]3OC(CO)[C@H](O)[C@H](O)C3O)C2O)[C@H](O)C1NC(C)=O)OC(=O)CCCCCCC/C=C\CCCCCCCC (some centres unmarked) [Example 1, Galili-CMG2-DOPE]	incorporates into the plasma membrane of CHO-K1 cells and presents the alpha-Gal epitope for recognition by anti-Gal antibodies	are lysed by human serum complement	7.02 µM
CCCCCCCC/C=C\CCCCCCCC(=O)OCC(COP(=O)(O)OCCNC(=O)CCCCC(=O)NCCCO[C@@H]1OC(CO)[C@@H](O[C@@H]2OC(CO)[C@H](O)C(O[C@H]3OC(CO)[C@H](O)C(O)C3NC(C)=O)C2O)C(O)C1NC(C)=O)OC(=O)CCCCCCC/C=C\CCCCCCCC (some centres unmarked) [Example 3, GalNAcα1-3Galβ1-4GlcNAc-Ad-DOPE]	–	are lysed by human serum complement	86.8 µM
